Results from patent US3965109A, “Certain aryl amino pyridines” (priority 1971, dated 1976).

Assays:
[1] = system: Puccinia recondita (wheat); assay: Fungicidal test against foliar disease A (foliage spray plus soil drench); type: in vivo; conditions: 100 ppm spray and drench; 10 days
[2] = system: Plasmopara viticola (vine); assay: Fungicidal test against foliar disease C (foliage spray plus soil drench); type: in vivo; conditions: 100 ppm spray and drench; 10 days
[3] = system: Piricularia oryzae (rice); type: in vivo; conditions: 100 ppm spray and drench; 7 days
[4] = system: Venturia inaequalis (apple); assay: Fungicidal test against foliar disease G (foliage spray plus soil drench); type: in vivo; conditions: 100 ppm spray and drench; 21 days
Description: This Example illustrates the fungicidal properties of compounds used as active ingredients in the compositions of the invention. The compounds were tested against a wide variety of foliar fungal diseases of plants. In the test, a composition comprising an aqueous solution or suspension of the test compound was sprayed on to the foliage or uninfected plants; the soil in which the plants were growing was also drenched with the composition. The compositions used for spraying and drencing contained 100 parts per million (ppm.) of the test compound except where otherwise stated in the table of results below. After spraying and drenching, the plants were then exposed to infection with the diseases it was desired to control, along with control plants not treated with the compound. After a period of days, depending upon the particular disease, the extent of the disease was visually assessed, as a percentage of the disease established upon the control plants which had not been treated with the compound under test, according to the grading scheme below
In Table 2 below the names of the disease is given in the first column, and in the second column is given the time which elapsed between exposing the plants to infection and assessing the amount of disease.

[5] = system: Tetranychus telarius (red spider mites, adults); assay: Pest toxicity test; type: in vivo; conditions: 0.1% by weight; French bean; 3 days
[6] = system: Tetranychus telarius (red spider mites, eggs); assay: Pest toxicity test; type: in vivo; conditions: 0.1% by weight; French bean; 3 days
Aphis fabae = assay: Pest toxicity test; type: in vivo; conditions: 0.1% by weight; broad bean; 2 days
Megoura viceae = assay: Pest toxicity test; type: in vivo; conditions: 0.1% by weight; broad bean; 2 days
[7] = system: Aedes aegypti (mosquito larvae); assay: Pest toxicity test; type: in vivo; conditions: 0.01% by weight; water; 1 day
[8] = system: Aedes aegypti (mosquito adults); assay: Pest toxicity test; type: in vivo; conditions: 0.01% by weight; plywood; 1 day
[9] = system: Musca domestica (houseflies); assay: Pest toxicity test, contact test; type: in vivo; conditions: 0.1% by weight; milk/sugar; 2 days; flies sprayed directly
[10] = system: Pieris brassicae (cabbage white caterpillars); assay: Pest toxicity test; type: in vivo; conditions: 0.1% by weight, 2 days
[11] = system: Plutella maculipennis (diamond back moth larvae); assay: Pest toxicity test; type: in vivo; conditions: in vivo
[12] = system: Phaedon cochleariae (mustard beetles); assay: Pest toxicity test; type: in vivo; conditions: in vivo
[13] = system: Agrobacterium tumifaciens; assay: Antibacterial agar test (B1); type: cell-based; conditions: 50 ppm; 5 days
[14] = system: Corynebacterium michiganense; assay: Antibacterial agar test (B2); type: cell-based; conditions: 50 ppm; 5 days
Description: (§1) This Example illustrates the activity of compounds used as the active ingredients of compositions according to the invention against a variety of plant bacterial diseases and fungal post-harvest saprophytic diseases. In a test for such activity, 5 milligrams of the compound to be tested was dissolved or suspended in 10 ml. of acetone and enough of this solution or suspension was added to 18 ml. of nutrient agar (for the bacterial diseases) or 16 ml. of 2% malt agar (for the fungal diseases) to give a final concentration of 50 parts per million of the compound under test. A streptomycin preparation (2 ml. containing 100 units per ml.) was added to the malt agar to prevent bacterial contamination of the fungal tests.
(§2) The agar preparations were dried overnight in Petri dishes and inoculated the following morning with the bacterial or fungal diseases using a multipoint inoculator. The antibacterial activity was assessed after 5 days and the antifungal activity after 6 days. The results of the tests are set out in Table 16 (anti bacterial activity) and Table 17 (antifungal activity). The results are graded as in Example 1 above.

Xanthomonas malvacearum = assay: Antibacterial agar test (B3); type: cell-based; conditions: 50 ppm; 5 days
Description: as §1, §2

Erwinia carotovora = assay: Antibacterial agar test (B4); type: cell-based; conditions: 50 ppm; 5 days
Xanthomonas oryzae = type: cell-based; conditions: 50 ppm; 5 days
Pseudomonas syringae = assay: Antibacterial agar test (B6); type: cell-based; conditions: 50 ppm; 5 days
Streptomyces scabies = assay: Antibacterial agar test (B7); type: cell-based; conditions: 50 ppm; 5 days
[15] = system: Phytophthora infestans (tomato); type: in vivo; conditions: 100 ppm spray and drench; 3 days
Uncinula necator (vine) = assay: Fungicidal test against foliar disease D (foliage spray plus soil drench); type: in vivo; conditions: 100 ppm spray and drench; 10 days
[16] = system: Meloidogyne incognita (nematodes); assay: Pest toxicity test; type: in vivo; conditions: 0.01% by weight; water; 1 day
[17] = system: Agriolimax reticulatus (slugs); assay: Molluscicidal activity test; type: in vivo, Agriolimax reticulatus (Mull); conditions: pellet with 4% by weight; 6 days; 10°C
Summary of the method: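 Slugs were starved for 24 hours, then housed two per dish, in duplicate, under high humidity at 10°C. They fed on pellets dried to contain 4% w/w of test compound. Mortality was scored on day 6.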

Lettuce = assay: Herbicidal test, pre- and post-emergence; type: in vivo; conditions: 10 kg/ha; scale 0 to 3 (complete kill)
Tomato = assay: Herbicidal test, pre- and post-emergence; type: in vivo; conditions: 10 kg/ha; scale 0 to 3 (complete kill)
Wheat = assay: Herbicidal test, pre- and post-emergence; type: in vivo; conditions: 10 kg/ha; scale 0 to 3 (complete kill)
Maize = assay: Herbicidal test, pre- and post-emergence; type: in vivo; conditions: 10 kg/ha; scale 0 to 3 (complete kill)

| Compound | Mortality grading (kill) [5] | Mortality grading (kill) [6] | Mortality grading (kill) (Aphis fabae) | Mortality grading (kill) (Megoura viceae) | Mortality grading (kill) [7] | Mortality grading (kill) [8] | Mortality grading (kill), contact test [9] | Mortality grading (kill) [10] | Mortality grading (kill) [11] | Mortality grading (kill) [12] | Antibacterial activity grading B1 [13] | Antibacterial activity grading B2 [14] | Antibacterial activity grading B3 (Xanthomonas malvacearum) | Antibacterial activity grading B4 (Erwinia carotovora) | Antibacterial activity grading B5 (Xanthomonas oryzae) | Antibacterial activity grading B6 (Pseudomonas syringae) | Antibacterial activity grading B7 (Streptomyces scabies) | Amount of disease grading, disease C (Table 4) [2] | Amount of disease grading, disease D (Table 4) (Uncinula necator (vine)) | Mortality grading (kill) [16] | also measured |
| --- | --- | --- | --- | --- | --- | --- | --- | --- | --- | --- | --- | --- | --- | --- | --- | --- | --- | --- | --- | --- | --- |
| COc1nc(F)c(Cl)c(Nc2c(F)c(F)c(C#N)c(F)c2F)c1Cl [Compound 21, 2-Fluoro-3,5-dichloro-6methoxy-4(4-cyano-2,3,5,6-tetrafluoroanilino)pyridine] | 0 (O represents less than 30% kill) | 0 (O represents less than 30% kill) | 0 (O represents less than 30% kill) | 0 (O represents less than 30% kill) | 3 (3 represents over 90% kill) | 0 (O represents less than 30% kill) | 2 (2 represents 60 - 90% kill) | 0 (O represents less than 30% kill) | 1 (key: O represents less than 30% kill; 1 represents 30 - 49% kill; 2 represents 60 - 90% kill; 3 represents over 90% kill; C indicates a chemosterilant effect.; A indicates an antifeeding effect.) | 0 (key: O represents less than 30% kill; 1 represents 30 - 49% kill; 2 represents 60 - 90% kill; 3 represents over 90% kill; C indicates a chemosterilant effect.; A indicates an antifeeding effect.) | 2 (6 to 25) | 3 (0 to 5) | 3 (0 to 5) | 3 (0 to 5) | 2 (6 to 25) | 3 (0 to 5) | 3 (0 to 5) |  |  |  | Amount of disease grading, disease A [1]: 3 (0 to 5); Amount of disease grading, disease C [2]: 3 (0 to 5); Amount of disease grading, disease E [3]: 3 (0 to 5); Amount of disease grading, disease G [4]: 3 (0 to 5) |
| O=[N+]([O-])c1cc(Cl)c(Nc2c(Cl)c(F)nc(F)c2Cl)cc1Cl [Compound 24, 3,5-Dichloro-2,6-difluoro-4(2,5-dichloro-4nitro-anilino)pyridine] | 3 (3 represents over 90% kill) | 0 (O represents less than 30% kill) | 0 (O represents less than 30% kill) | 0 (O represents less than 30% kill) | 3 (3 represents over 90% kill) | 0 (O represents less than 30% kill) | 1 (1 represents 30 - 49% kill) | 0 (O represents less than 30% kill) | 0 (key: O represents less than 30% kill; 1 represents 30 - 49% kill; 2 represents 60 - 90% kill; 3 represents over 90% kill; C indicates a chemosterilant effect.; A indicates an antifeeding effect.) | 0 (key: O represents less than 30% kill; 1 represents 30 - 49% kill; 2 represents 60 - 90% kill; 3 represents over 90% kill; C indicates a chemosterilant effect.; A indicates an antifeeding effect.) | 3 (0 to 5) | 3 (0 to 5) | 3 (0 to 5) | 3 (0 to 5) | 3 (0 to 5) | 3 (0 to 5) | 3 (0 to 5) | 3 (0 to 5) | 3 (0 to 5) | 0 (O represents less than 30% kill) | Amount of disease grading, disease A (Table 4) [1]: 0 (61 to 100); Amount of disease grading, disease B (Table 4) [15]: 3 (0 to 5); Amount of disease grading, disease E (Table 4) [3]: 0 (61 to 100) |
| O=[N+]([O-])c1cc(Cl)cc([N+](=O)[O-])c1Nc1c(Cl)c(F)nc(F)c1Cl [Compound 29, 3,5-Dichloro-2,6-difluoro-4(4-chloro-2,6-dinitroanilino)pyridine] | 3 (3 represents over 90% kill) |  | 3 (3 represents over 90% kill) | 3 (3 represents over 90% kill) | 3 (3 represents over 90% kill) | 0 (O represents less than 30% kill) | 0 (O represents less than 30% kill) | 0 (O represents less than 30% kill) | 0 (key: O represents less than 30% kill; 1 represents 30 - 49% kill; 2 represents 60 - 90% kill; 3 represents over 90% kill; C indicates a chemosterilant effect.; A indicates an antifeeding effect.) | 0 (key: O represents less than 30% kill; 1 represents 30 - 49% kill; 2 represents 60 - 90% kill; 3 represents over 90% kill; C indicates a chemosterilant effect.; A indicates an antifeeding effect.) | 3 (0 to 5) | 3 (0 to 5) | 3 (0 to 5) | 3 (0 to 5) | 3 (0 to 5) | 3 (0 to 5) | 3 (0 to 5) | 3 (0 to 5) | 3 (0 to 5) | 0 (O represents less than 30% kill) | % Kill of slugs [17]: 50%; Damage to plants, post-emergence (Lettuce): 0; Damage to plants, pre-emergence (Lettuce): 3; Damage to plants, post-emergence (Tomato): 0; Damage to plants, pre-emergence (Tomato): 3; Damage to plants, post-emergence (Wheat): 0; Damage to plants, pre-emergence (Wheat): 3; Damage to plants, post-emergence (Maize): 0; Damage to plants, pre-emergence (Maize): 0 |
| N#Cc1c(F)c(F)c(Nc2c(Cl)c(F)nc(F)c2Cl)c(F)c1C#N [Compound 33, 3,5-Dichloro-4(3,4-dicyano-2,5,6-trifluoroanilino) 2,6-difluoropyridine] | 3 (3 represents over 90% kill) | 3 (3 represents over 90% kill) | 0 (O represents less than 30% kill) | 0 (O represents less than 30% kill) | 0 (O represents less than 30% kill) | 2 (2 represents 60 - 90% kill) |  | 3 (3 represents over 90% kill) | 1 (key: O represents less than 30% kill; 1 represents 30 - 49% kill; 2 represents 60 - 90% kill; 3 represents over 90% kill; C indicates a chemosterilant effect.; A indicates an antifeeding effect.) | 0 (key: O represents less than 30% kill; 1 represents 30 - 49% kill; 2 represents 60 - 90% kill; 3 represents over 90% kill; C indicates a chemosterilant effect.; A indicates an antifeeding effect.) | 3 (0 to 5) | 3 (0 to 5) | 3 (0 to 5) | 3 (0 to 5) | 3 (0 to 5) | 3 (0 to 5) | 3 (0 to 5) | 3 (0 to 5) | 2 (6 to 25) | 0 (O represents less than 30% kill) | Amount of disease grading, disease A (Table 4) [1]: 2 (6 to 25); Amount of disease grading, disease B (Table 4) [15]: 3 (0 to 5); Amount of disease grading, disease E (Table 4) [3]: 3 (0 to 5) |
